Where a name gives a salt, the structure may show the parent alone. Read-outs that look alike come from different tables or passages of the source.
Legend:
Format in all cases: cell-based, human
MDA-MB-231 cells = assay: MTT cytotoxicity assay, MDA-MB-231; settings: read-out: IC50 MDA-MB-231
Procedure: The data was calculated and presented as IC50 values in Table 1.
(§1) The cytotoxicities of the compounds were evaluated by the MTT assay, which is based on the conversion of MTT to formazan crystals by mitochondrial dehydrogenases. […] The medium was incubated with 20 μL of 5 mg/mL MTT solution for 3 h in a humidified incubator containing 5% CO2. The purple coloured formazan crystals formed in the wells were dissolved in DMSO and their absorbances were measured at 570 nm with a microplate reader. Cell viability was expressed as a percentage of the value in control cultures.

hTERT-RPE1 cells = assay: MTT cytotoxicity assay, hTERT-RPE1 normal cells; settings: read-out: IC50 hTERT-RPE1
Procedure: (§2) The anticancer activities of compounds 17–24, 41–56 against MCF-7, MDA-MB-231 and hTERT-RPE1 cells were determined in vitro by an MTT assay. […] The data was calculated and presented as IC50 values in Table 1.
as §1

MCF-7 cells = assay: MTT cytotoxicity assay, MCF-7; settings: read-out: IC50 MCF-7
Procedure: as §2, §1

[1] = human breast cancer cell line MDA-MB-231, MTT method, 24 h treatment, mean ± SD
[2] = normal human retinal pigment epithelial cell line hTERT-RPE1, MTT method, 24 h treatment, mean ± SD
[3] = MCF7, human breast cancer cell line MCF-7, MTT method, 24 h treatment, mean ± SD

Row | Compound | IC50 (MDA-MB-231 cells; Homo sapiens, MDA-MB-231, 24 h) [µM] | IC50 (hTERT-RPE1 cells; Homo sapiens, hTERT-RPE1, 24 h) [µM] | IC50 (MCF-7 cells; Homo sapiens, MCF7, 24 h) [µM] | IC50 (MDA-MB-231 cells; [1]) [µM] | IC50 (hTERT-RPE1 cells; [2]) [µM] | IC50 (MCF-7 cells; [3]) [µM]
1 | COC(=O)/C=C/c1ccc(OC(=O)[C@@]2(C)CC[C@]3(C)CC[C@]4(C)C(=CC(=O)[C@@H]5[C@@]6(C)CC[C@H](OC(=O)[C@@H](N)CC[Se]C)C(C)(C)[C@@H]6CC[C@]54C)[C@@H]3C2)c(OC)c1 [Compound 42, Ferulic acid methyl ester 3β-(l-selenomethionine)-11-oxo-olean-12-en-30-oate hydrochloride] | 1.37 ± 0.18 | 4.93 ± 0.36 | 1.88 ± 0.2 |  |  | 
2 | COC(=O)/C=C/c1cccc(OC(=O)[C@@]2(C)CC[C@]3(C)CC[C@]4(C)C(=CC(=O)[C@@H]5[C@@]6(C)CC[C@H](OC(=O)[C@@H](N)CCSC)C(C)(C)[C@@H]6CC[C@]54C)[C@@H]3C2)c1 [Compound 53, trans-3-Hydroxycinnamic acid methyl ester 3β-(l-methionine)-11-oxo-olean-12-en-30-oate hydrochloride] |  |  |  | 3.54 ± 0.46 | 8.49 ± 0.51 | 7.2 ± 0.55
3 | COC(=O)/C=C/c1ccc(OC)c(OC(=O)[C@@]2(C)CC[C@]3(C)CC[C@]4(C)C(=CC(=O)[C@@H]5[C@@]6(C)CC[C@H](OC(=O)[C@@H](N)CC[Se]C)C(C)(C)[C@@H]6CC[C@]54C)[C@@H]3C2)c1 [Compound 50, Isoferulic acid methyl ester 3β-(l-selenomethionine)-11-oxo-olean-12-en-30-oate hydrochloride] | 3.13 ± 0.45 | 9.79 ± 0.37 | 5.12 ± 0.58 |  |  | 
4 | COc1cccc2c1C(=O)c1c(O)c3c(c(O)c1C2=O)C[C@@](O)(C(=O)CO)C[C@@H]3O[C@H]1C[C@H](N)[C@H](O)[C@H](C)O1 [ADR, doxorubicin, reference compound] |  |  |  |  | 2.76 ± 0.11 | 0.49 ± 0.09
5 | CCOC(=O)/C=C/c1cccc(OC(=O)[C@@]2(C)CC[C@]3(C)CC[C@]4(C)C(=CC(=O)[C@@H]5[C@@]6(C)CC[C@H](OC(=O)[C@@H](N)CCSC)C(C)(C)[C@@H]6CC[C@]54C)[C@@H]3C2)c1 [Compound 55, trans-3-Hydroxycinnamic acid ethyl ester 3β-(l-methionine)-11-oxo-olean-12-en-30-oate hydrochloride] |  |  |  | 1.92 ± 0.91 | 6.63 ± 0.22 | 5.79 ± 0.85
6 | CCOC(=O)/C=C/c1ccc(OC(=O)[C@@]2(C)CC[C@]3(C)CC[C@]4(C)C(=CC(=O)[C@@H]5[C@@]6(C)CC[C@H](OC(=O)[C@@H](N)CCSC)C(C)(C)[C@@H]6CC[C@]54C)[C@@H]3C2)c(OC)c1 [Compound 43, Ferulic acid ethyl ester 3β-(l-methionine)-11-oxo-olean-12-en-30-oate hydrochloride] |  |  |  | 5.36 ± 0.44 | 16.3 ± 0.51 | 8.62 ± 0.23
7 | COC(=O)/C=C/c1ccc(OC(=O)[C@@]2(C)CC[C@]3(C)CC[C@]4(C)C(=CC(=O)[C@@H]5[C@@]6(C)CC[C@H](OC(=O)[C@@H](N)CCSC)C(C)(C)[C@@H]6CC[C@]54C)[C@@H]3C2)cc1 [Compound 45, trans-4-Hydroxycinnamic acid methyl ester 3β-(l-methionine)-11-oxo-olean-12-en-30-oate hydrochloride] |  |  |  | 6.43 ± 0.84 | 8.48 ± 0.73 | 7.24 ± 0.3
8 | COC(=O)/C=C/c1ccc(OC)c(OC(=O)[C@@]2(C)CC[C@]3(C)CC[C@]4(C)C(=CC(=O)[C@@H]5[C@@]6(C)CC[C@H](OC(=O)[C@@H](N)CCSC)C(C)(C)[C@@H]6CC[C@]54C)[C@@H]3C2)c1 [Compound 49, Isoferulic acid methyl ester 3β-(l-methionine)-11-oxo-olean-12-en-30-oate hydrochloride] |  |  |  | 4.56 ± 0.36 | 8.92 ± 0.55 | 8.7 ± 0.14
9 | COC(=O)/C=C/c1ccc(OC(=O)[C@@]2(C)CC[C@]3(C)CC[C@]4(C)C(=CC(=O)[C@@H]5[C@@]6(C)CC[C@H](OC(=O)[C@@H](N)CC[Se]C)C(C)(C)[C@@H]6CC[C@]54C)[C@@H]3C2)cc1 [Compound 46, trans-4-Hydroxycinnamic acid methyl ester 3β-(l-selenomethionine)-11-oxo-olean-12-en-30-oate hydrochloride] | 6.27 ± 0.24 | 6.33 ± 0.19 | 6.02 ± 0.35 |  |  | 
10 | CCOC(=O)/C=C/c1ccc(OC(=O)[C@@]2(C)CC[C@]3(C)CC[C@]4(C)C(=CC(=O)[C@@H]5[C@@]6(C)CC[C@H](OC(=O)[C@@H](N)CC[Se]C)C(C)(C)[C@@H]6CC[C@]54C)[C@@H]3C2)c(OC)c1 [Compound 44, Ferulic acid ethyl ester 3β-(l-selenomethionine)-11-oxo-olean-12-en-30-oate hydrochloride] | 3.49 ± 0.61 | 12.3 ± 0.46 | 8.45 ± 0.32 |  |  | 
11 | CCOC(=O)/C=C/c1ccc(OC)c(OC(=O)[C@@]2(C)CC[C@]3(C)CC[C@]4(C)C(=CC(=O)[C@@H]5[C@@]6(C)CC[C@H](OC(=O)[C@@H](N)CCSC)C(C)(C)[C@@H]6CC[C@]54C)[C@@H]3C2)c1 [Compound 51, Isoferulic acid ethyl ester 3β-(l-methionine)-11-oxo-olean-12-en-30-oate hydrochloride] |  |  |  | 4.67 ± 0.74 | 12.5 ± 0.4 | 8.81 ± 0.2
12 | CCOC(=O)/C=C/c1ccc(OC(=O)[C@@]2(C)CC[C@]3(C)CC[C@]4(C)C(=CC(=O)[C@@H]5[C@@]6(C)CC[C@H](OC(=O)[C@@H](N)CCSC)C(C)(C)[C@@H]6CC[C@]54C)[C@@H]3C2)cc1 [Compound 47, trans-4-Hydroxycinnamic acid ethyl ester 3β-(l-methionine)-11-oxo-olean-12-en-30-oatehydrochloride] |  |  |  | 2.31 ± 0.65 | 5.65 ± 1.02 | 2.65 ± 0.12
13 | CCOC(=O)/C=C/c1ccc(OC(=O)[C@@]2(C)CC[C@]3(C)CC[C@]4(C)C(=CC(=O)[C@@H]5[C@@]6(C)CC[C@H](OC(=O)[C@@H](N)CC[Se]C)C(C)(C)[C@@H]6CC[C@]54C)[C@@H]3C2)cc1 [Compound 48, trans-4-Hydroxycinnamic acid ethyl ester 3β-(l-selenomethionine)-11-oxo-olean-12-en-30-oate hydrochloride] | 1.86 ± 0.29 | 7.08 ± 0.73 | 2.42 ± 0.23 |  |  | 
14 | COC(=O)/C=C/c1cccc(OC(=O)[C@@]2(C)CC[C@]3(C)CC[C@]4(C)C(=CC(=O)[C@@H]5[C@@]6(C)CC[C@H](OC(=O)[C@@H](N)CC[Se]C)C(C)(C)[C@@H]6CC[C@]54C)[C@@H]3C2)c1 [Compound 54, trans-3-Hydroxycinnamic acid methyl ester 3β-(l-selenomethionine)-11-oxo-olean-12-en-30-oate hydro-chloride] | 2.46 ± 0.77 | 4.55 ± 0.44 | 3.48 ± 0.82 |  |  | 
15 | COC(=O)/C=C/c1ccc(OC(=O)[C@@]2(C)CC[C@]3(C)CC[C@]4(C)C(=CC(=O)[C@@H]5[C@@]6(C)CC[C@H](OC(=O)[C@@H](N)CCSC)C(C)(C)[C@@H]6CC[C@]54C)[C@@H]3C2)c(OC)c1 [Compound 41, Ferulic acid methyl ester 3β-(l-methionine)-11-oxo-olean-12-en-30-oate hydrochloride] |  |  |  | 3.52 ± 0.61 | 10.4 ± 0.8 | 6 ± 0.43
16 | CCOC(=O)/C=C/c1cccc(OC(=O)[C@@]2(C)CC[C@]3(C)CC[C@]4(C)C(=CC(=O)[C@@H]5[C@@]6(C)CC[C@H](OC(=O)[C@@H](N)CC[Se]C)C(C)(C)[C@@H]6CC[C@]54C)[C@@H]3C2)c1 [Compound 56, trans-3-Hydroxycinnamic acid ethyl ester 3β-(l-selenomethionine)-11-oxo-olean-12-en-30-oate hydrochloride] | 1.53 ± 0.25 | 3.7 ± 0.29 | 2.57 ± 0.4 |  |  | 

Source: PMC6274419, “Synthesis and Anticancer Activities of Glycyrrhetinic Acid Derivatives” (Molecules, 2016)
